Data: paper PMC3929664, “A Panel of Diverse Assays to Interrogate the Interaction between Glucokinase and Glucokinase Regulatory Protein, Two Vital Proteins in Human Disease” (PLoS ONE, 2014)
Where a name gives a salt, the structure may show the parent alone. Each block holds one compound with its values, some of them ahead of it.

Target: T1, GCK-GKRP interaction (recombinant human GST-GCK and FLAG-GKRP) (Homo sapiens, UniProt P35557+Q14397)
T1 construct: made in house
T1 sequence (P35557 1-465): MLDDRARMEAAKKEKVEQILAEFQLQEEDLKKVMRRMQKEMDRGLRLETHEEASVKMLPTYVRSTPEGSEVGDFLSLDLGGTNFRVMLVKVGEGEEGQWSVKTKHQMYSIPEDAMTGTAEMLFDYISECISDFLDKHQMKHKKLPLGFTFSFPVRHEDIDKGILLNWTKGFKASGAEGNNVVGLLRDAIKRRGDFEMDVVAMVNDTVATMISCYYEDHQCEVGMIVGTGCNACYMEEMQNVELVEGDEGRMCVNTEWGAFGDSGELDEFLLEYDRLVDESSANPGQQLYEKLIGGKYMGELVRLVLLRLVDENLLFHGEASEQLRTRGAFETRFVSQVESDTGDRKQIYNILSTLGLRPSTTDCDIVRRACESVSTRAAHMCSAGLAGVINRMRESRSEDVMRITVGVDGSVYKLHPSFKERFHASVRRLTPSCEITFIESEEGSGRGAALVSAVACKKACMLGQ
T1 sequence (Q14397 1-625): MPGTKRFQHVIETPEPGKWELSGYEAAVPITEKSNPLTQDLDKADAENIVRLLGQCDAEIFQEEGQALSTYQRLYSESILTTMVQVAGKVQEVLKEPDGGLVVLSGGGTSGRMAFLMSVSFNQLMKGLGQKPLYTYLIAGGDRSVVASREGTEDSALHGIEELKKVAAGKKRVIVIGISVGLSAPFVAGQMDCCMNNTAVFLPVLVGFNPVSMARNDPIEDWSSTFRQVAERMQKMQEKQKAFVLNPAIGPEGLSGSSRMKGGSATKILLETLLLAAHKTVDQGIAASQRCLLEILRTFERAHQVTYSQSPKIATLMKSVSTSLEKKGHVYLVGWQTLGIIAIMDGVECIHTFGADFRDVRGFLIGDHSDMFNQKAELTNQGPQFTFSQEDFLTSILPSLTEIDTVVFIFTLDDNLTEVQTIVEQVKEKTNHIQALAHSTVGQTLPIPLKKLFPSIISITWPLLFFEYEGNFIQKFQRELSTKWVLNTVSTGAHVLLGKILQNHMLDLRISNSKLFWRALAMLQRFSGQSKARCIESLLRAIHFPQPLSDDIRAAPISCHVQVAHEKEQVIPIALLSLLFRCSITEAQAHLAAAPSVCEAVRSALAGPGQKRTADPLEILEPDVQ
Test: HTRF assay of the GCK-GKRP protein-protein interaction
Format: binding
Conditions: 5 nM GCK, 5 nM GKRP
Description: Homogeneous time-resolved fluorescence (HTRF) technology (Cisbio Bioassays, Bedford, MA, USA) was utilized for antibody-based FRET measurement of the GCK-GKRP protein-protein interaction. Recombinant human GST-GCK and FLAG-GKRP were mixed in an HTRF assay buffer containing 2 mM MgCl2, 25 mM KCl, 25 mM HEPES, 1 mM DTT, 0.1% Tween-20, and 0.025% BSA (all buffer components Sigma-Aldrich). The pH was adjusted to 7.1 by drop-wise addition of 10 N NaOH. […] For assays in 1536-well plate format, the two reaction mixes were dispensed using an Aurora Discovery BioRAPTR Flying Reagent Dispenser (BioRAPTR; Beckman Coulter, Inc., Brea, CA, USA) (3 µl/well for protein-containing buffer; 1 µl/well for detection antibodies) into white 1536-well solid-bottom medium binding plates (Greiner Bio-One, Monroe, NC, USA). […] For the LOPAC^1280 library screen, column 1 was all components with DMSO (maximum signal) and column 3 was no GKRP with DMSO (minimum signal). These two control columns were used for data normalization. The final HTS protocol is in Table S1, and the data have been deposited in PubChem (AID 743207).
S6P, F1P, and glucose were dissolved in water; GKAs were dissolved in DMSO.
The assay was validated using a range (0–150 nM) of GCK and GKRP concentrations at manufacturer-recommended detection antibody concentrations ( Figure 2A ). Fluorescence was measured immediately upon mixing, and every 30 minutes thereafter for a total of 240 minutes. The plate was covered and incubated at room temperature throughout the course of the experiment.
The assay was miniaturized to 1536-well plate format and, concurrently, specificity of detection was validated by using known modulators of the GCK-GKRP interaction.
The EC80 value represents a compromise between the desire for large enough signal enhancement and the need to maintain a binding level that is not too saturated so that it can be outcompeted by compounds of interest. Additionally, this approach enables detection of specific competitors of S6P, which would likely be acting on GKRP as desired, and not on GCK. […] Both glucose and GKAs interfere with the binding of GKRP to GCK and decrease GKRP inhibition, [44], [45], while F1P binds to GKRP and is competitive with respect to S6P [46].

Compound: O=C(O)C1=CC(=C(c2ccc(O)c(C(=O)O)c2)c2ccc(O)c(C(=O)O)c2)C=CC1=O [ATA, aurintricarboxylic acid]
LOPAC1280 screen outcome (2 µM S6P): inhibitors of the GCK-GKRP interaction

IC50 (2 µM S6P, mean ± SD, read-out: IC50 (inhibition of GCK-GKRP interaction, HTRF signal)): 70 ± 5.4 µM
Compound: O=C(COP(=O)(O)O)[C@@H](O)[C@H](O)[C@H](O)CO [F1P, fructose 1-phosphate]

EC80: 2 µM | EC50 (1536-well, mean ± SD, read-out: EC50 (enhancement of HTRF signal)): 0.4 ± 0.08 µM
Compound: O=P(O)(O)OC[C@@H](O)[C@@H](O)[C@H](O)[C@@H](O)CO [S6P, sorbitol 6-phosphate]

LOPAC1280 screen outcome (2 µM S6P): inhibitors of the GCK-GKRP interaction
Compound: Cc1ccc(C(=O)Nc2ccc(S(=O)(=O)O)c3cc(S(=O)(=O)O)cc(S(=O)(=O)O)c23)cc1NC(=O)c1cccc(NC(=O)Nc2cccc(C(=O)Nc3cc(C(=O)Nc4ccc(S(=O)(=O)O)c5cc(S(=O)(=O)O)cc(S(=O)(=O)O)c45)ccc3C)c2)c1 [suramin sodium salt]
